Assay results as given in article PMC3584109, “Protective Effect of Borage Seed Oil and Gamma Linolenic Acid on DNA: In Vivo and In Vitro Studies” (PLoS ONE, 2013).
Where two headings read alike, the source gives them in different places. Marks after values point to notes of the source that are not given here.

Columns and labels:
[1] = test system: human hepatoma HepG2 cells (E9 cells); set-up: method as in PMID 9660301; conditions: cited from earlier work
[2] = test system: leukocytes (HL-60, Jurkat and Raji cells); set-up: method as in PMID 12489694; conditions: cited from earlier work
D. melanogaster [3] = assay: Toxicity assay: survival of adults from treated 72 h old larvae; assay type: in vivo, Drosophila melanogaster; conditions: for average toxicities (survival): average over tested concentrations
Procedure: Crosses were performed with optimally fertile virgin females of the flr3/TM3, Bd^s strain and mwh/mwh males. After 8 h egg-laying, 72±3 h old larvae were washed in distilled water, transferred to fresh vials with 0.85 g Drosophila Instant Medium (formula 4–24, Carolina Biological Supply, Burlington NC, USA) which were wetted with 4 ml after of put solutions of increasing concentrations of the borage seed oil and GLA. […] Taking into account the average daily food intake of D. melanogaster (1 mg/day) and the average body weight of D. melanogaster individuals (1 mg), the concentration range for both borage seed oil and GLA were calculate to fit them into the recommended fat daily intake for humans (60 g of total fat/day for 60 kg human body weight). Emerging adults of all groups were counted and stored in 70% ethanol to be analysed. Procedures are: 1) Toxicity assays evaluated (number of individuals born in treatment/number of individuals born in the negative control)x100.

D. melanogaster [4] = conditions: in vivo
Procedure: (§1) Analysis of the genotoxic and antigenotoxic activities of borage seed oil and GLA, was evaluated by the Drosophila SMART test. Two different Drosophila melanogaster strains carrying visible wing genetic markers were used: the flare (flr) strain flr^3/ln (3LR) TM3, Bd^s and the multiple wing-hair (mwh) strain mwh/mwh. The marker multiple wing hairs (mwh, 3_0.3) is a recessive mutation that is viable in homozygous flies, producing multiple hairs per cell instead of the wild type single-hair trichome. The marker flare (flr^3, 3_38.3) is a recessive mutation which produces individual wing hairs that are malformed. The flr^3 allele is retained via a balancer chromosome carrying multiple inversions and a dominant marker which is homozygous lethal (TM3, Bd^S: Third Multiple 3, Beaded-Serrate). Additional information on genetic markers can be found in [31].
(§2) Crosses were performed with optimally fertile virgin females of the flr3/TM3, Bd^s strain and mwh/mwh males. After 8 h egg-laying, 72±3 h old larvae were washed in distilled water, transferred to fresh vials with 0.85 g Drosophila Instant Medium (formula 4–24, Carolina Biological Supply, Burlington NC, USA) which were wetted with 4 ml after of put solutions of increasing concentrations of the borage seed oil and GLA. Test groups consisting of 100 larvae each were: (i) negative control (distilled water); (ii) mutagenic positive control (hydrogen peroxide 0.12 M); (iii) 5 vials with increasing concentrations of borage seed oil (12.5, 18.7, 31.2, 62.5 and 125 µl/ml); and (iv) 5 vials with increasing concentrations of GLA (8.9, 13, 22, 45 and 90 mM). Taking into account the average daily food intake of D. melanogaster (1 mg/day) and the average body weight of D. melanogaster individuals (1 mg), the concentration range for both borage seed oil and GLA were calculate to fit them into the recommended fat daily intake for humans (60 g of total fat/day for 60 kg human body weight). Emerging adults of all groups were counted and stored in 70% ethanol to be analysed. Procedures are: 1) Toxicity assays evaluated (number of individuals born in treatment/number of individuals born in the negative control)x100. 2) Genotoxicity assays evaluated mutation rate diagnosis of different groups and 3) Antigenotoxicity testing, combined treatments were performed as previously described by Anter et al., 2011 [32], by using hydrogen peroxide 0.12 M as the genotoxicant and the concentrations of borage seed oil and GLA mentioned above in groups (iii) and (iv), evaluating mutation rate diagnosis of different treatments.
(§3) Marker-heterozygous genotypes (mwh/flr^3) were mounted on slides with Faurés solution. Both dorsal and ventral surfaces of the wings containing 22,000 cells were screened under a photonic microscope at 400× magnification for the occurrence of individual spots (mwh or flr phenotype) or twin spots (mwh clone adjacent to flr clone). […] Large individual spots with three or more cells showing mwh or flr phenotypes corresponded to mutational events occurring earlier during larvae development. Twin spots with two juxtaposed clones corresponded uniquely to recombination events between the flr^3 gene and the centromere.
(§4) For the evaluation of genotoxic effects, the frequencies of spots per fly of each treated series were compared to the concurrent negative control for each class of mutational clone. A multiple-decision procedure was used to categorize results as positive, weakly positive, inconclusive, or negative. Statistical analyses were carried out for single, large, twin and total number of spots recovered. Inconclusive and positive data were evaluated by the non-parametric U test of Mann, Whitney and Wilcoxon according to Frei and Würgler 1995 [36]. The inhibition percentage for each compound and treatment was calculated following Abraham, 1994 [37] (hydrogen peroxide alone - substance assayed + hydrogen peroxide / hydrogen peroxide alone) × 100.

D. melanogaster [5] = conditions: for % of inhibition: calculated according to Abraham (1994)
Procedure: as §1, §2, §3, §4

D. melanogaster [6] = assay: Longevity assay (life span and health span); assay type: in vivo, Drosophila melanogaster; conditions: all assayed concentrations of GLA
Procedure: The F1 progeny from […]^3 parental strains produced by 24 h egg-laying in yeast was used. Longevity experiments were carried out at 25°C, following the procedure described by Chavous et al., 2001 [33]. Briefly, synchronised transheterozygous 72±12 h old larvae were washed in distilled water and separated into groups of 100 individuals in vials with a mixture of 0.85 g Drosophila Instant Medium and 4 ml of the different concentrations of the two substances selected. […] Three replicates were used during the complete life span for each control and concentration established. The number of survivors was counted and the medium renewed twice a week. In addition, the Kaplan-Meier estimates of the survival function for each concentration and respective control are plotted as survival curves. Statistical analyses and significance of the curves were assessed using the SPSS 15.0 statistics software (SPSS Inc. Headquarters, Chicago, IL, USA) using the Log-Rank (Mantel-Cox) method.

HL60 cells = assay: Cytotoxicity assay, Trypan Blue dye exclusion; assay type: cell-based; conditions: Homo sapiens, HL-60, 72 h, read-out: IC50 (concentration causing 50% inhibition of cell growth)
Procedure: The human promyelocytic leukaemia cell line HL60 was obtained from Dr. José M. Villalba Montoro (Department of Cell Biology, Univ. Cordoba, Spain), [34]. HL60 cells were incubated in RPMI-1640 medium (Cat N° A1049101, Invitrogen) supplemented with: L-glutamine 200 mM, (Cat N° G7513, Sigma-Aldrich, St. Louis, MO) antibiotics 100× (Cat N° A5955, Sigma-Aldrich, St. Louis, MO) and 10% heat-inactivated foetal bovine serum (Cat N° SO1805, Linus). Cells were maintained at 37°C in an atmosphere of 5% CO2. Cultures were plated at a density of 12.5×10^4cells/ml in 40 ml culture bottles (25 cm^2) and passed every 2 days.
For the assessment of cell viability, HL60 cells were placed in 12 well culture plates (1×10^5 cells/ml) and treated for 72 h with increasing concentrations of borage seed oil and GLA. Cell viability was determined by the Trypan Blue dye exclusion test (T8154, Sigma-Aldrich, St. Louis, MO). Cells were counted by adding an aliquot of 10 µl of the culture to 10 µl of the Trypan Blue dye. The mix was counted under a light inverted microscope using a Neubauer chamber (AE30/31, Motic). Aliquots were taken after 24, 36, 48, 60 and 72 h incubation. […] Curves are expressed as the percentage of survival with respect to controls at 72 h of growth. […]

CCCCC/C=C\C/C=C\C/C=C\C/C=C\CCCC(=O)O [arachidonic acid]
toxicity to E9 cells ([1]; pretreatment with 0.03 mM): significant toxicity
concentrations with necrotic effect ([2]; high concentrations): 400 to 1600 µM
concentrations with apoptotic effect ([2]; low concentrations): 10 to 400 µM

OO [hydrogen peroxide]
Survival percentage for 0.12 M hydrogen peroxide alone treatments (D. melanogaster [3]; 0.12 M hydrogen peroxide alone): 84.44^(4) %
Mutation rate (Spots per wing) Large single spots (>2 cells) m = 5 (D. melanogaster [4]): 0.03 (12) spots per wing
Mutation rate (Spots per wing) Small single spots (1–2 cells) m = 2 (D. melanogaster [4]): 0.46 (126) spots per wing
Mutation rate (Spots per wing) Total spots m = 2 (D. melanogaster [4]): 0.51 spots per wing
Mutation rate (Spots per wing) Twin spots m = 5 (D. melanogaster [4]): 0.01 (3) spots per wing
N° of emerging adults (D. melanogaster [4]): 328
Total spots diagnosis (D. melanogaster [4]): +
Total spots diagnosis (D. melanogaster [5]; in vivo): +

CCCCCCCC/C=C\CCCCCCCC(=O)O [oleic acid, cis-9 octadecenoic]
toxicity to E9 cells ([1]; 0.05 mM): no significant toxicity

CCCCC/C=C\C/C=C\C/C=C\CCCCC(=O)O [GLA, all cis-6,9,12-octadecatrienoic acid]
Survival % Simple treatment (D. melanogaster [3]; GLA 8.9 mM (lowest concentration)): 99%
Survival % Simple treatment (D. melanogaster [3]; GLA 8.9 mM (lowest concentration), listed as Gamma-linolenic acid): 99.25%
Survival % Combined Treatment (D. melanogaster [3]; GLA 8.9 mM + 0.12 M hydrogen peroxide): 48.88*** %
Survival % Simple treatment (D. melanogaster [3]; GLA 13 mM): 66.66*** %
Survival % Combined Treatment (D. melanogaster [3]; GLA 13 mM + 0.12 M hydrogen peroxide): 22.22*** %
Survival % Simple treatment (D. melanogaster [3]; GLA 22 mM): 39.25*** %
Survival % Combined Treatment (D. melanogaster [3]; GLA 22 mM + 0.12 M hydrogen peroxide): 39.25*** %
Survival % Simple treatment (D. melanogaster [3]; GLA 45 mM): 50.37*** %
Survival % Combined Treatment (D. melanogaster [3]; GLA 45 mM + 0.12 M hydrogen peroxide): 37.77*** %
Survival % Simple treatment (D. melanogaster [3]; GLA 90 mM): 20.74*** %
Survival % Combined Treatment (D. melanogaster [3]; GLA 90 mM + 0.12 M hydrogen peroxide): 32.59*** %
decrease in survival (D. melanogaster [3]; GLA, next higher concentration after the lowest (13 mM)): 66%
toxicity to D. melanogaster (D. melanogaster [3]; lowest concentration of GLA): non-toxicity
average toxicities (survival) (D. melanogaster [3]; plus hydrogen peroxide as a toxicant): 31%
average toxicities (survival) (D. melanogaster [3]; simple treatment): 55%
weighted average of induced spots/wing (D. melanogaster [4]; Drosophila melanogaster): 0.23 spots/wing
genotoxicity (D. melanogaster [4]): non-genotoxic
effect on life span (D. melanogaster [6]): decreased the mean survival time significantly
IC50 (HL60 cells): 87 µM
Mutation rate (Spots per wing) Large single spots (>2 cells) m = 5 (D. melanogaster [5]; GLA 8.9 mM + H2O2 0.12 M): 0.02 (1) spots per wing
Mutation rate (Spots per wing) Small single spots (1–2 cells) m = 2 (D. melanogaster [5]; GLA 8.9 mM + H2O2 0.12 M): 0.3 (15) spots per wing
Mutation rate (Spots per wing) Total spots m = 2 (D. melanogaster [5]; GLA 8.9 mM + H2O2 0.12 M): 0.32 spots per wing
Mutation rate (Spots per wing) Twin spots m = 5 (D. melanogaster [5]; GLA 8.9 mM + H2O2 0.12 M): 0 spots per wing
% of inhibition (D. melanogaster [5]; GLA 8.9 mM + H2O2 0.12 M): 37%
Mutation rate (Spots per wing) Large single spots (>2 cells) m = 5 (D. melanogaster [5]; GLA 13 mM + H2O2 0.12 M): 0 spots per wing
Mutation rate (Spots per wing) Small single spots (1–2 cells) m = 2 (D. melanogaster [5]; GLA 13 mM + H2O2 0.12 M): 0.25 (3) spots per wing
Mutation rate (Spots per wing) Total spots m = 2 (D. melanogaster [5]; GLA 13 mM + H2O2 0.12 M): 0.25 spots per wing
Mutation rate (Spots per wing) Twin spots m = 5 (D. melanogaster [5]; GLA 13 mM + H2O2 0.12 M): 0 spots per wing
% of inhibition (D. melanogaster [5]; GLA 13 mM + H2O2 0.12 M): 51%
Mutation rate (Spots per wing) Large single spots (>2 cells) m = 5 (D. melanogaster [5]; GLA 22 mM + H2O2 0.12 M): 0 spots per wing
Mutation rate (Spots per wing) Small single spots (1–2 cells) m = 2 (D. melanogaster [5]; GLA 22 mM + H2O2 0.12 M): 0.39 (11) spots per wing
Mutation rate (Spots per wing) Total spots m = 2 (D. melanogaster [5]; GLA 22 mM + H2O2 0.12 M): 0.42 spots per wing
Mutation rate (Spots per wing) Twin spots m = 5 (D. melanogaster [5]; GLA 22 mM + H2O2 0.12 M): 0.03 (1) spots per wing
% of inhibition (D. melanogaster [5]; GLA 22 mM + H2O2 0.12 M): 17%
Mutation rate (Spots per wing) Large single spots (>2 cells) m = 5 (D. melanogaster [5]; GLA 45 mM + H2O2 0.12 M): 0.03 (1) spots per wing
Mutation rate (Spots per wing) Small single spots (1–2 cells) m = 2 (D. melanogaster [5]; GLA 45 mM + H2O2 0.12 M): 0.19 (5) spots per wing
Mutation rate (Spots per wing) Total spots m = 2 (D. melanogaster [5]; GLA 45 mM + H2O2 0.12 M): 0.26 spots per wing
Mutation rate (Spots per wing) Twin spots m = 5 (D. melanogaster [5]; GLA 45 mM + H2O2 0.12 M): 0.03 (1) spots per wing
% of inhibition (D. melanogaster [5]; GLA 45 mM + H2O2 0.12 M): 49%
Mutation rate (Spots per wing) Large single spots (>2 cells) m = 5 (D. melanogaster [5]; GLA 90 mM + H2O2 0.12 M): 0.06 (1) spots per wing
Mutation rate (Spots per wing) Small single spots (1–2 cells) m = 2 (D. melanogaster [5]; GLA 90 mM + H2O2 0.12 M): 0.18 (3) spots per wing
Mutation rate (Spots per wing) Total spots m = 2 (D. melanogaster [5]; GLA 90 mM + H2O2 0.12 M): 0.25 spots per wing
Mutation rate (Spots per wing) Twin spots m = 5 (D. melanogaster [5]; GLA 90 mM + H2O2 0.12 M): 0 spots per wing
% of inhibition (D. melanogaster [5]; GLA 90 mM + H2O2 0.12 M): 51%
antigenotoxicity (D. melanogaster [5]; compared to hydrogen peroxide): antimutagenic
inhibitory potential against hydrogen peroxide, weighted average (D. melanogaster [5]; over all concentrations): 38.1%
